# According to article PMC10933344, “A lncRNA Dleu2-encoded peptide relieves autoimmunity by facilitating Smad3-mediated Treg induction” (EMBO Reports, 2024):
# Key:
# [1] = test system: CD4+ T cells in CNS of EAE mice; experiment: Flow cytometry of CNS T cells of treated EAE mice; type: in vivo, mouse; conditions: 100 μg i.v.
# Procedure: Figure 5 Dleu2-17aa attenuates EAE by promoting Treg cells. (A) Schematic diagram of MOG-induced EAE and treatment strategies with Dleu2-17aa, scrPEP, and Glatiramer. Mice received 100 μg of Dleu2-17aa or scrPEP every 3 days via i.v. injection or 150 μg of Glatiramer every day for seven times via s.c. on days 9 to 15. (B) Clinical scores were examined daily from day 9 using a scoring system ranging from 0 (no sign) to 5 (complete paralysis or dead). The x-axis represents experimental days, and the y-axis represents symptom severity (n = 8–9). (C) Representative Luxol fast blue (LFB) and hematoxylin and eosin staining (H&E) staining sections for treated EAE spinal cord. Scale bars: 100 μm. (D) Histopathology scores of inflammations and demyelination in treated EAE mice spinal cord using a scoring system ranging from 0 (no inflammatory cells or demyelination) to 4 (extensive inflammatory cells infiltration or confluent foci of demyelination) (n = 5–8). (E) Representative dot plots (left panel) and frequency (right panel) of CD44^hiCD62L^lo activated T cells, Foxp3^+ Treg cells, IL-17A^+ Th17 cells, and IFN-γ^+ Th1 cells gated on CD4^+ T cells in the spleen 14 days post immunization of MOG (n = 3). (F) Representative dot plots and frequency of CD4^+, Foxp3^+ Treg cells, and IFN-γ^+ Th1 cells gated on CD4^+ T cells in the CNS 14 days post immunization of MOG (n = 3). Data information: n indicates biological replicate. Error bars are mean ± SEM; *P < 0.05, **P < 0.01, and ***P < 0.001, n.s. indicates no significant difference. Statistical analysis was by two-way ANOVA for (B) and two-tailed Student’s t-test for (D–F). Source data are available online for this figure. TEXT PRINTED IN THE PICTURE: (E) scrPEP: Spleen: CD62L-PE-DF594 / CD44-PE: 78.2; Spleen: Foxp3-PE / CD4-APC: 7.38; Spleen: IFN-γ-Percp-cy5.5 / Il-17A-FITC: 4.67; Spleen: IFN-γ-Percp-cy5.5 / Il-17A-FITC: 0.18; Spleen: IFN-γ-Percp-cy5.5 / Il-17A-FITC: 94.7; Spleen: IFN-γ-Percp-cy5.5 / Il-17A-FITC: 0.44 | (E) Dleu2-17aa: Spleen: CD62L-PE-DF594 / CD44-PE: 37.2; Spleen: Foxp3-PE / CD4-APC: 12.9; Spleen: IFN-γ-Percp-cy5.5 / Il-17A-FITC: 2.83; Spleen: IFN-γ-Percp-cy5.5 / Il-17A-FITC: 0.26; Spleen: IFN-γ-Percp-cy5.5 / Il-17A-FITC: 96.1; Spleen: IFN-γ-Percp-cy5.5 / Il-17A-FITC: 0.79 | (F) scrPEP: CNS: FSC / CD4-APC: 9.03; CNS: Foxp3-PE / CD4-APC: 8.47; CNS: IFN-γ-Percp-cy5.5 / Il-17A-FITC: 22.9; CNS: IFN-γ-Percp-cy5.5 / Il-17A-FITC: 2.00; CNS: IFN-γ-Percp-cy5.5 / Il-17A-FITC: 69.7; CNS: IFN-γ-Percp-cy5.5 / Il-17A-FITC: 5.44 | (F) Dleu2-17aa: CNS: FSC / CD4-APC: 3.33; CNS: Foxp3-PE / CD4-APC: 15.5; CNS: IFN-γ-Percp-cy5.5 / Il-17A-FITC: 13.9; CNS: IFN-γ-Percp-cy5.5 / Il-17A-FITC: 2.65; CNS: IFN-γ-Percp-cy5.5 / Il-17A-FITC: 77.7; CNS: IFN-γ-Percp-cy5.5 / Il-17A-FITC: 5.79 DOUBTS OF THE COPYIST ABOUT THIS PICTURE: Panels E and F: the gate and quadrant numbers in the dot plots are printed with no measure or unit; the tissue heading and the axis labels of each plot are written in front of them. For the quadrant plots the order is upper left, upper right, lower left, lower right. / Panels E and F: the gate numbers are in small print, so 3, 5, 6, 8 and 9 are best readings: E scrPEP 78.2, 7.38, 4.67, 0.18, 94.7; E Dleu2-17aa 37.2, 12.9, 2.83, 0.26, 96.1, 0.79; F scrPEP 9.03, 8.47, 22.9, 69.7, 5.44; F Dleu2-17aa 3.33, 15.5, 13.9, 2.65, 5.79.
# For active EAE immunization, myelin oligodendrocyte glycoprotein peptide (MOGp35–55, […], GenScript) was emulsified in complete Freund adjuvant (Sigma-Aldrich). An equivalent of 300 μg MOG peptide was injected per mouse subcutaneously followed by 200 ng of pertussis toxin (Merck-Calbiochem) injection intravenously on day 0 and day 2 of immunization. […]
# [2] = test system: Foxp3 CNS1-luciferase reporter / Smad3; experiment: Foxp3 CNS1-luciferase reporter assay in NIH/3T3 cells; type: cell-based, mouse; conditions: 20 μM
sequence,measurement,setting,value
"ARGPARRMRGGRRRRLR [scrPEP, scrambled control peptide of Dleu2-17aa]",CD4+ / Live Cells(%),[1]; replicate 1,9.03%
same,Foxp3+/ CD4+ Cells (%),[1]; replicate 1,8.94%
same,IFN-γ+/ CD4+ Cells(%),[1]; replicate 1,22.8%
same,CD4+ / Live Cells(%),[1]; replicate 2,10.1%
same,Foxp3+/ CD4+ Cells (%),[1]; replicate 2,9.11%
same,IFN-γ+/ CD4+ Cells(%),[1]; replicate 2,22.9%
same,CD4+ / Live Cells(%),[1]; replicate 3,9.74%
same,Foxp3+/ CD4+ Cells (%),[1]; replicate 3,8.47%
same,IFN-γ+/ CD4+ Cells(%),[1]; replicate 3,23.8%
same,Relative luciferase activity,"[2]; with Smad3 vector, replicate 4",1.896
same,Relative luciferase activity,"[2]; with Smad3 vector, replicate 5",1.262
same,Relative luciferase activity,"[2]; without Smad3 vector, replicate 4",0.7583
same,Relative luciferase activity,"[2]; without Smad3 vector, replicate 5",0.8478
